The numbers were not newly measured in patent US20250186473A1, “Compositions and Methods for Treating Kidney Disease” (Neukidney Incorporated, priority 2023, published 2025), which cites them from elsewhere.

In this data set the test system is CKD in rat models. The note with it: oral supplementation, BUN, serum creatinine, fibrosis.

With `NC(=O)c1cccnc1` [Nicotinamide], the “effect on progression of CKD” value is “attenuated progression of CKD”.
